The compounds below were run against GLP-1R (Homo sapiens, UniProt P43220) (assay: GLP-1R agonist cAMP stimulation assay (HTRF cAMP)). Conditions: HEK293 cell line expressing GLP-1 target; HTRF cAMP agonist mode, 30 min at RT.
Chain of GLP-1R (P43220 24-463): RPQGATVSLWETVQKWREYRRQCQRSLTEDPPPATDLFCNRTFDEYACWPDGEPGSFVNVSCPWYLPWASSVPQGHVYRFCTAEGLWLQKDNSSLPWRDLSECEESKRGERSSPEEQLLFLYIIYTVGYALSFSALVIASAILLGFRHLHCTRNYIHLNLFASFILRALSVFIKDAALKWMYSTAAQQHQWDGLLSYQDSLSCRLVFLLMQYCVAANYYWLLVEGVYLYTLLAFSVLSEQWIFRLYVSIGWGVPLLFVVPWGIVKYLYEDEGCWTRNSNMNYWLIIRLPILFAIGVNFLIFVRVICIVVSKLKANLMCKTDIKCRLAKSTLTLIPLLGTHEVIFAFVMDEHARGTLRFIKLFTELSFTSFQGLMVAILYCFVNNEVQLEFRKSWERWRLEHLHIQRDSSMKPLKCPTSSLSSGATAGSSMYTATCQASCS
Type: cell-based
Experimental: cAMP Detection Kit, Cisbio (Cat #62AM4PEJ)
The cell line was constructed by WuXi.
2. Methods • a) The compound source plate preparation: • The reference 7-37 was diluted from 500 nM, 4-fold, 10 points in DMSO using Bravo. The compounds were diluted from […], 3-fold, 10 points in DMSO using Bravo. • b) Transfer of compounds: • 1) Use Echo transfer 100 nL cpd to the OptiPlate-384 plate. • 2) Spin the plates at 1000 rpm for 5 sec. • c) Cell suspension preparation: • 1) Thaw 1 vial of GLP-1 cells rapidly in 37° C. water bath. • 2) Transfer cell suspension into 10 ml of HBSS in a 15 ml conical tube. • 3) Centrifuge cells at 1000 rpm for 5 min at room temperature to pellet cells • 4) Gently aspirate supernatant being careful not to aspirate cells. • 5) Flick pellet to loose cells and re-suspend the cell pellet in 10 ml HBSS. Use a sterile pipette to pipette up and down to dislodge clumps. • 6) Count cells for concentration and to determine cell viability on Vi-cell. • 7) Re-suspend the GLP-1 cells in assay buffer at a concentration of 1.0×E5/mL cells. • 8) Transfer 10 μL GLP-1 cells to OptiPlate-384 plate. • d) HTRF cAMP Assay for agonist: • 1) Incubate the plate at RT for 30 min before adding the detection reagent. • 2) Add 10 μL each of detection reagent using Electric Multiple Channel Pipette. • 3) Cover the 384 plate with TopSeal-A film and incubate for 60 minutes at room temperature. • Remove the TopSeal-A, read on EnVision.
Create a new log (Inhibitor) vs response—Variable slope mode in Prism5.0 software, substitute the standard curve concentration (x) and its corresponding 665/615 data (y) into the model, convert the standard curve concentration (abscissa) by x=log(x), and make the standard curve through the converted xy.
Transform the data of 665/615 in the whole plate into a column of data, substitute it into y in the table of standard curve concentration (x) and 665/615 data (y), copy the x (interpolatedx) corresponding to automatic conversion by the software into a table, convert it into cAMP level by the formula x=10^(x), and reset the data into 384 distribution.
% Activity=(cAMP level−LC)/(HC−LC)*100% • Z factor: 1-3*(STD_HC+[…])/(HC-LC) • Assay Window: HC/LC • LC: The average cAMP level of adding DMSO wells • HC: The average cAMP level of adding the top concentration of reference compounds wells.
Create a new […] in Prism5.0 software, substitute the sample concentration (x) and its corresponding % Activity data (y) into the model, convert the standard curve concentration (abscissa) to x=log(x), and make the sample curve through the converted xy.
In the case of Cc1cc(C(=O)Nc2ccc3c(c2)nc(CN2CC=C(c4cccc(OCc5ccc(Cl)cc5F)n4)CC2)n3C[C@@H]2CCO2)c(F)c2c(C)n[nH]c12 [Compound 222], the EC50 is reported as 3.56 nM. With Cc1n[nH]c2ccc(C(=O)Nc3ccc4c(c3)nc(CN3CC=C(c5cccc(OCc6ccc(Cl)cc6F)n5)CC3)n4C[C@@H]3CCO3)nc12 [Compound 239] the EC50 was 3.19 nM. For Cc1n[nH]c2c(F)cc(NC(=O)c3ccc4c(c3)nc(CN3CC=C(c5cccc(OCc6cc(F)c(C#N)s6)n5)CC3)n4C[C@@H]3CCO3)cc12 [Compound 363], the EC50 was 0.41 nM. With O=C(Nc1cc(F)c2[nH]ncc2c1)c1ccc2c(c1)nc(CN1CC=C(c3cccc(OCc4ccc(Cl)cc4F)n3)CC1)n2C[C@@H]1CCO1 [Compound 152] the EC50 was 0.64 nM. Cc1n[nH]c2c(F)cc(C(=O)Nc3ccc4c(c3)nc(CN3CCC(c5cccc(OCc6cc(F)c(C#N)s6)n5)CC3)n4C[C@@H]3CCO3)cc12 [Compound 374] gave an EC50 of 0.55 nM. In the case of O=C(Nc1cc2[nH]c(=O)[nH]c2cc1F)c1ccc2c(c1)nc(CN1CCC(c3cccc(OCc4ccc(Cl)cc4F)n3)CC1)n2C[C@@H]1CCO1 [Compound 92], the EC50 is reported as 18.6 nM. For Cc1cc(-c2cccc3c2OC(C)(c2ccc(Cl)cc2F)O3)cc(F)c1Cc1nc2cc(NC(=O)c3ccc4[nH]nc(C5CC5)c4c3)ccc2n1CC1CCO1 (stereo not shown) [Compound 324], the EC50 was 2.95 nM. CNS(=O)(=O)Cc1ccc2[nH]cc(CCNC(=O)c3ccc4c(c3)nc(CN3CCC(c5cccc(OCc6ccc(Cl)cc6F)n5)CC3)n4CCOC)c2c1 [Compound 39] was tested, and the EC50 was 286 nM. With O=C(Nc1ccc2[nH]nc(C(F)F)c2c1)c1ccc2c(c1)nc(CN1CCC(c3cccc(OCc4ccc(Cl)cc4F)n3)CC1)n2C[C@@H]1CCO1 [Compound 115] the EC50 was 0.87 nM. Compound COCCn1c(CN2CCC(c3cccc(OCc4ccc(Cl)cc4F)n3)CC2)nc2cc(NC(=O)c3cc(C)c4[nH]nc(C)c4c3)ccc21 [Compound 260] has an EC50 of 1.03 nM. In the case of CC1(C)C[C@@H](C(=O)O)N(C(=O)CNC(=O)c2ccc3c(c2)nc(CN2CCC(c4cccc(OCc5ccc(Cl)cc5F)n4)CC2)n3C[C@@H]2CCO2)C1 [Compound 58], the EC50 is reported as 4.35 nM. Cc1n[nH]c2c(C(F)F)cc(NC(=O)c3ccc4c(c3)nc(CN3CCC(c5cccc(OCc6ccc(Cl)cc6F)n5)CC3)n4C[C@@H]3CCO3)cc12 [Compound 119] gave an EC50 of 0.63 nM. Cn1cc2cc(NC(=O)c3ccc4c(c3)nc(CN3CCC(c5cccc(OCc6ccc(Cl)cc6F)n5)CC3)n4C[C@@H]3CCO3)ccc2n1 [Compound 99] gave an EC50 of 42.4 nM. Work on Cc1n[nH]c2c(Cl)cc(NC(=O)c3ccc4c(c3)nc(CN3CCC(c5cccc6c5OC(C)(c5ccc(Cl)cc5F)O6)CC3)n4CC3CCO3)cc12 (stereo not shown) [Compound 338] yielded an EC50 of 1.32 nM. COCCn1c(CN2CCC(c3cccc(OCc4ccc(Cl)cc4F)n3)CC2)nc2cc(C(=O)NCCCc3ccc(O)cc3)ccc21 [Compound 25] was tested, and the EC50 was 756 nM. O=C(NCC(=O)N1CC(F)(F)C[C@H]1C(=O)O)c1ccc2c(c1)nc(CN1CC=C(c3cccc(OCc4ccc(Cl)cc4F)n3)CC1)n2C[C@@H]1CCO1 [Compound 72] was tested, and the EC50 was 0.61 nM. Work on Nc1ncc2c(ncn2C(=O)c2ccc3c(c2)nc(CN2CCC(c4cccc(OCc5ccc(Cl)cc5F)n4)CC2)n3C[C@@H]2CCO2)n1 [Compound 78] yielded an EC50 of 23.1 nM. Work on O=C(Nc1ccc2[nH]c(=O)cnc2c1)c1ccc2c(c1)nc(CN1CCC(c3cccc(OCc4ccc(Cl)cc4F)n3)CC1)n2C[C@@H]1CCO1 [Compound 84] yielded an EC50 of 17.9 nM. For Cc1c[nH]c2c(C)cc(C(=O)Nc3ccc4c(c3)nc(CN3CC=C(c5cccc(OCc6ccc(Cl)cc6F)n5)CC3)n4C[C@@H]3CCO3)cc12 [Compound 390], the EC50 was 5.21 nM. O=C(CNC(=O)c1ccc2c(c1)nc(CN1CCC(c3cccc(OCc4ccc(Cl)cc4F)n3)CC1)n2C[C@@H]1CCO1)N[C@@H](CO)C(=O)O [Compound 49] was tested, and the EC50 was 2.47 nM. In the case of Cc1cc(C(=O)Nc2ccc3c(c2)nc(CN2CC=C(c4cccc(OCc5ccc(C#N)cc5F)n4)CC2)n3C[C@@H]2CCO2)cc2c(C3CC3)n[nH]c12 [Compound 233], the EC50 is reported as 0.92 nM. With COCCn1c(Cc2ccc(-c3cccc(OCc4ccc(C#N)cc4F)n3)cc2)nc2cc(C(=O)NCCc3ccc(O)cc3)ccc21 [Compound 1, 2-(4-(6-((4-cyano-2-fluorobenzyl)oxy)pyridin-2-yl)benzyl)-N-(4-hydroxyphenethyl)-1-(2-methoxyethyl)-1H-benzo[d]imidazole-5-carboxamide] the EC50 was 4150 nM. Work on O=C(NCC(=O)N1C[C@@H](O)C[C@H]1C(=O)O)c1ccc2c(c1)nc(CN1CCC(c3cccc(OCc4ccc(Cl)cc4F)n3)CC1)n2C[C@@H]1CCO1 [Compound 45] yielded an EC50 of 1.39 nM. With Fc1cc(Cl)ccc1COc1cccc(C2=CCN(Cc3nc4cc(-c5nc(-c6cc(C(F)(F)F)[nH]n6)co5)ccc4n3C[C@@H]3CCO3)CC2)n1 [Compound 398] the EC50 was 110 nM. Cc1n[nH]c2c(C)cc(C(=O)Nc3ccc4c(c3)nc(CN3CC=C(c5cccc(OCc6ccc(C#N)c7cc(Cl)oc67)n5)CC3)n4C[C@@H]3CCO3)cc12 [Compound 357] was tested, and the EC50 was 0.41 nM. O=C(Nc1cc(C(F)(F)F)c2[nH]nc(C3CC3)c2c1)c1ccc2c(c1)nc(CN1CC=C(c3cccc(OCc4ccc(Cl)cc4F)n3)CC1)n2C[C@@H]1CCO1 [Compound 163] showed an EC50 of 0.99 nM. With CCc1n[nH]c2ccc(NC(=O)c3ccc4c(c3)nc(CN3CC=C(c5cccc(OCc6ccc(C#N)cc6F)n5)CC3)n4C[C@@H]3CCO3)cc12 [Compound 186] the EC50 was 2.12 nM. Cc1n[nH]c2cc(F)c(C(=O)Nc3ccc4c(c3)nc(CN3CC=C(c5cccc(OCc6ccc(Cl)cc6F)n5)CC3)n4C[C@@H]3CCO3)cc12 [Compound 221] was tested, and the EC50 was 2.13 nM. With O=C(Nc1cc(C(F)(F)F)c2[nH]ncc2c1)c1ccc2c(c1)nc(CN1CCC(c3cccc(OCc4ccc(Cl)cc4F)n3)CC1)n2C[C@@H]1CCO1 [Compound 108] the EC50 was 2.39 nM. Fc1cc(Cl)ccc1COc1cccc(C2=CCN(Cc3nc4ccc(CNc5cc(F)c6[nH]ncc6c5)cc4n3C[C@@H]3CCO3)CC2)n1 [Compound 268] gave an EC50 of 3.64 nM. Compound N#Cc1ccc(COc2cccc(C3=CCN(Cc4nc5cc(NC(=O)c6ccc7c(c6)C6(CC6)C(=O)N7)ccc5n4C[C@@H]4CCO4)CC3)n2)c(F)c1 [Compound 230] has an EC50 of 0.09 nM. With Cc1n[nH]c2c(F)cc(NC(=O)c3ccc4c(c3)nc(CN3CC=C(c5cccc6c5O[C@@](C)(c5ccc(C#N)cc5F)O6)CC3)n4CC3CCO3)cc12 (stereo partly shown) [Compound 298] the EC50 was 0.37 nM. Cc1cc2c(C#N)ccc(COc3cccc(C4CCN(Cc5nc6cc(NC(=O)c7cc(F)c8[nH]nc(C)c8c7)ccc6n5C[C@@H]5CCO5)CC4)n3)c2o1 [Compound 372] showed an EC50 of 0.65 nM. In the case of O=C(NCc1ccc2[nH][nH]c(=O)c2c1)c1ccc2c(c1)nc(CN1CCC(c3cccc(OCc4ccc(Cl)cc4F)n3)CC1)n2C[C@@H]1CCO1 [Compound 76], the EC50 is reported as 9.04 nM. Compound Cc1n[nH]c2ccc(NC(=O)c3ccc4nc(CN5CC=C(c6cccc(OCc7ccc(C#N)cc7F)n6)CC5)n(CC5CCO5)c4c3)cc12 (stereo not shown) [Compound 275] has an EC50 of 6.21 nM. O=C(Nc1ccc2[nH]c(=O)[nH]c2c1)c1ccc2nc(CN3CC=C(c4cccc(OCc5ccc(Cl)cc5F)n4)CC3)n(C[C@@H]3CCO3)c2c1 [Compound 270] showed an EC50 of 1.02 nM. Work on Cc1cc(C(=O)Nc2ccc3c(c2)nc(C2CC24CCN(c2cccc(OCc5ccc(Cl)cc5F)n2)CC4)n3C[C@@H]2CCO2)cc2c1NC(=O)C21CC1 (stereo partly shown) [Compound 247] yielded an EC50 of 0.83 nM. For O=C(Nc1ccc2c(c1)nc(C1CC13CCC(c1cccc(OCc4ccc(Cl)cc4F)n1)CC3)n2CC1CCO1)c1ccc2[nH]nc(C3CC3)c2c1 (stereo not shown) [Compound 252], the EC50 was 1.03 nM. Work on Cc1n[nH]c2ccc(NC(=O)c3ccc4c(c3)nc(CN3CCC(c5cccc6c5OC(C)(c5ccc(Cl)cc5F)O6)CC3)n4CC3CCO3)cc12 (stereo not shown) [Compound 336] yielded an EC50 of 1.03 nM. Work on Cc1cc(NC(=O)c2ccc3c(c2)nc(CN2CC=C(c4cccc(OCc5ccc(Cl)cc5F)n4)CC2)n3C[C@@H]2CCO2)cc2c(C(F)F)n[nH]c12 [Compound 169] yielded an EC50 of 1.02 nM. For CCc1cc(NC(=O)c2ccc3c(c2)nc(CN2CCC(c4cccc(OCc5ccc(Cl)cc5F)n4)CC2)n3C[C@@H]2CCO2)cc2c(C)n[nH]c12 [Compound 117], the EC50 was 10.2 nM. Work on Cc1n[nH]c2c(C)cc(NC(=O)c3ccc4c(c3)nc(CN3CC=C(c5cccc(OCc6ccc(C#N)cc6F)n5)CC3)n4C[C@@H]3CCO3)cc12 [Compound 181] yielded an EC50 of 0.21 nM. In the case of Cc1cc(NC(=O)c2ccc3c(c2)nc(CN2CC=C(c4cccc(OCc5ccc(C#N)cc5F)n4)CC2)n3C[C@@H]2CCO2)cc2c(C(F)F)n[nH]c12 [Compound 183], the EC50 is reported as 0.76 nM.

— US20230271949A1, “GLP-1R MODULATING COMPOUNDS” (ASCLETIS BIOSCIENCE CO., LTD., priority 2022, published 2023)
